From patent US20140120060A1, “TREATMENT OF RHEUMATOID ARTHRITIS AND ASTHMA USING PI3 KINASE INHIBITORS” (INFINITY PHARMACEUTICALS, INC., priority 2012, published 2014)

Test system: B cell
Assay: B cell proliferation
Format: cell-based

SMILES | EC50 [nM]
Cc1cccc2cc(Cn3cnc4c(N)ncnc43)n(-c3ccccc3F)c(=O)c12 [Compound 1] | < 10000
Cc1cccc2cc(Cn3nc(I)c4c(N)ncnc43)n(-c3ccccc3F)c(=O)c12 [Compound 2] | < 10000
Cc1cccc2cc(Cn3nc(-c4cc(O)cc(F)c4)c4c(N)ncnc43)n(-c3ccccc3F)c(=O)c12 [Compound 3] | < 100
Cc1cccc2cc(Cn3nc(C#CC4CC4)c4c(N)ncnc43)n(-c3ccccc3F)c(=O)c12 [Compound 4] | < 1000
Cc1ccccc1-n1c(Cn2cnc3c(N)ncnc32)cc2cccc(C)c2c1=O [Compound 5] | < 10000
Cc1cccc2cc(Cn3nc(C#CCO)c4c(N)ncnc43)n(-c3ccccc3F)c(=O)c12 [Compound 8] | < 1000
Cc1cccc2cc(Cn3nc(-c4ccc(F)c(O)c4)c4c(N)ncnc43)n(-c3ccccc3F)c(=O)c12 [Compound 9] | < 1000
Cc1cccc2cc(Cn3nc(-c4cccc(O)c4)c4c(N)ncnc43)n(-c3ccccc3F)c(=O)c12 [Compound 10] | < 1000
Cc1ccccc1-n1c(Cn2nc(C#CCO)c3c(N)ncnc32)cc2cccc(C)c2c1=O [Compound 11] | < 1000
Cc1ccccc1-n1c(Cn2nc(-c3ccc(F)c(O)c3)c3c(N)ncnc32)cc2cccc(C)c2c1=O [Compound 12] | < 100
Cc1ccccc1-n1c(Cn2nc(-c3cccc(O)c3)c3c(N)ncnc32)cc2cccc(C)c2c1=O [Compound 13] | < 100
Cc1ccccc1-n1c(Cn2nc(C#CC3CC3)c3c(N)ncnc32)cc2cccc(C)c2c1=O [Compound 14] | < 1000
Cc1cccnc1-n1c(Cn2nc(I)c3c(N)ncnc32)cc2cccc(C)c2c1=O [Compound 15] | < 1000
Cc1cccnc1-n1c(Cn2nc(-c3cc(O)cc(F)c3)c3c(N)ncnc32)cc2cccc(C)c2c1=O [Compound 16] | < 100
Cc1cccnc1-n1c(Cn2nc(Br)c3c(N)ncnc32)cc2cccc(C)c2c1=O [Compound 17] | < 100
Cc1cccnc1-n1c(Cn2nc(Cl)c3c(N)ncnc32)cc2cccc(C)c2c1=O [Compound 18] | < 1000
Cc1ccccc1-n1c(Cn2nc(Br)c3c(N)ncnc32)cc2cccc(C)c2c1=O [Compound 19] | < 1000
Cc1ccccc1-n1c(Cn2nc(Cl)c3c(N)ncnc32)cc2cccc(C)c2c1=O [Compound 20] | < 1000
COc1cc(-c2nn(Cc3cc4cccc(C)c4c(=O)n3-c3ccccc3C)c3ncnc(N)c23)ccc1Cl [Compound 21] | < 1000
COc1cc(-c2nn(Cc3cc4cccc(C)c4c(=O)n3-c3ccccc3F)c3ncnc(N)c23)ccc1Cl [Compound 22] | < 10000
Cc1ccccc1-n1c(Cn2nc(-c3ccc(Cl)c(O)c3)c3c(N)ncnc32)cc2cccc(C)c2c1=O [Compound 23] | < 100
Cc1cccc2cc(Cn3nc(-c4ccc(Cl)c(O)c4)c4c(N)ncnc43)n(-c3ccccc3F)c(=O)c12 [Compound 24] | < 1000
Cc1ccccc1-n1c(Cn2nc(-c3ccc(O)c(Cl)c3)c3c(N)ncnc32)cc2cccc(C)c2c1=O [Compound 25] | < 1000
Cc1cccc2cc(Cn3nc(-c4ccc(O)c(Cl)c4)c4c(N)ncnc43)n(-c3ccccc3F)c(=O)c12 [Compound 26] | < 10000
Cc1ccccc1-n1c(Cn2nc(-c3ccc(F)cc3)c3c(N)ncnc32)cc2cccc(C)c2c1=O [Compound 27] | < 10000

SMILES | EC50 [nM]
Cc1cccc2cc(Cn3nc(C#C[C@@H](C)O)c4c(N)ncnc43)n(-c3ccccc3F)c(=O)c12 [Compound 28] | < 1000
Cc1cccc2cc(Cn3nc(-c4ccc(O)c(F)c4)c4c(N)ncnc43)n(-c3ccccc3F)c(=O)c12 [Compound 29] | < 1000
Cc1ccccc1-n1c(Cn2nc(-c3ccc(O)c(F)c3)c3c(N)ncnc32)cc2cccc(C)c2c1=O [Compound 30] | < 1000
Cc1ccccc1-n1c(Cn2nc(I)c3c(N)ncnc32)cc2ccccc2c1=O [Compound 31] | < 1000
Cc1ccccc1-n1c(Cn2nc(C#C[C@@H](C)O)c3c(N)ncnc32)cc2ccccc2c1=O [Compound 32] | < 1000
Cc1ccccc1-n1c(Cn2nc(-c3cc(O)cc(F)c3)c3c(N)ncnc32)cc2ccccc2c1=O [Compound 33] | < 100
Cc1cccc2cc(Cn3nc(Cl)c4c(N)ncnc43)n(-c3ccccc3F)c(=O)c12 [Compound 34] | < 1000
Cc1cccc2cc(Cn3nc(Br)c4c(N)ncnc43)n(-c3ccccc3F)c(=O)c12 [Compound 35] | < 1000
Cc1ccccc1-n1c(Cn2nc(-c3ccc(O)cc3)c3c(N)ncnc32)cc2cccc(C)c2c1=O [Compound 36] | < 1000
Cc1ccccc1-n1c(Cn2nc(C#C[C@@H](C)O)c3c(N)ncnc32)cc2cccc(C)c2c1=O [Compound 37] | < 100
Cc1cccc2cc(Cn3nc(-c4cccc(Cl)c4)c4c(N)ncnc43)n(-c3ccccc3F)c(=O)c12 [Compound 38] | > 10000
Cc1ccccc1-n1c(Cn2nc(-c3cccc(Cl)c3)c3c(N)ncnc32)cc2cccc(C)c2c1=O [Compound 39] | < 10000
Cc1cccc2cc(Cn3nc(-c4cccc(F)c4)c4c(N)ncnc43)n(-c3ccccc3F)c(=O)c12 [Compound 40] | < 10000
Cc1ccccc1-n1c(Cn2nc(-c3cccc(F)c3)c3c(N)ncnc32)cc2cccc(C)c2c1=O [Compound 41] | < 1000
Cc1ccccc1-n1c(Cn2nc(I)c3c(N)ncnc32)cc2cccc(F)c2c1=O [Compound 42] | < 1000
Cc1ccccc1-n1c(Cn2nc(C#C[C@@H](C)O)c3c(N)ncnc32)cc2cccc(F)c2c1=O [Compound 43] | < 10000
COc1ccc(-c2nn(Cc3cc4cccc(C)c4c(=O)n3-c3ccccc3C)c3ncnc(N)c23)cc1OC [Compound 44] | < 100
COc1ccc(-c2nn(Cc3cc4cccc(C)c4c(=O)n3-c3ccccc3C)c3ncnc(N)c23)cc1 [Compound 45] | < 1000
Cc1cccc2cc(Cn3nc(-c4ccc(O)cc4)c4c(N)ncnc43)n(-c3ccccc3F)c(=O)c12 [Compound 46] | < 1000
COc1ccc(-c2nn(Cc3cc4cccc(C)c4c(=O)n3-c3ccccc3F)c3ncnc(N)c23)cc1OC [Compound 47] | < 1000
Cc1ccccc1-n1c(Cn2nc(-c3cnc4[nH]ccc4c3)c3c(N)ncnc32)cc2cccc(C)c2c1=O [Compound 48] | < 100
Cc1ccccc1-n1c(Cn2nc(-c3ccc(Cl)cc3)c3c(N)ncnc32)cc2cccc(C)c2c1=O [Compound 49] | < 10000
Cc1ccccc1-n1c(Cn2nc(-c3ccc4cc[nH]c4c3)c3c(N)ncnc32)cc2cccc(C)c2c1=O [Compound 50] | < 1000
Cc1ccccc1-n1c(Cn2nc(-c3cccc(O)c3)c3c(N)ncnc32)cc2ccccc2c1=O [Compound 51] | < 1000
CC(=O)Nc1nc2ccc(-c3nn(Cc4cc5cccc(C)c5c(=O)n4-c4ccccc4C)c4ncnc(N)c34)cc2s1 [Compound 53] | < 100

SMILES | EC50 [nM]
Cc1ccccc1-n1c(Cn2nc(-c3ccc(F)c(O)c3)c3c(N)ncnc32)cc2ccccc2c1=O [Compound 54] | < 100
Cc1ccccc1-n1c(Cn2nc(-c3cc(O)cc(F)c3)c3c(N)ncnc32)cc2cccc(F)c2c1=O [Compound 55] | < 100
Cc1cccc2cc(Cn3nc(I)c4c(N)ncnc43)n(C3CCCC3)c(=O)c12 [Compound 57] | < 10000
Cc1cccc2cc(Cn3nc(C#C[C@@H](C)O)c4c(N)ncnc43)n(C(C)C)c(=O)c12 [Compound 61] | < 1000
Cc1cccc2cc(Cn3nc(-c4cccc(O)c4)c4c(N)ncnc43)n(C(C)C)c(=O)c12 [Compound 62] | < 100
Cc1cccc2cc(Cn3nc(-c4cc(O)cc(F)c4)c4c(N)ncnc43)n(C3CCCC3)c(=O)c12 [Compound 63] | < 100
Cc1cccc2cc(Cn3nc(-c4cc(O)cc(F)c4)c4c(N)ncnc43)n(C(C)C)c(=O)c12 [Compound 66] | < 100
Cc1cccc2cc(Cn3nc(-c4ccc(F)c(O)c4)c4c(N)ncnc43)n(C(C)C)c(=O)c12 [Compound 67] | < 100
Cc1cccnc1-n1c(Cn2nc(-c3ccc(F)c(O)c3)c3c(N)ncnc32)cc2cccc(C)c2c1=O [Compound 68] | < 100
Cc1cccnc1-n1c(Cn2nc(C#C[C@@H](C)O)c3c(N)ncnc32)cc2cccc(C)c2c1=O [Compound 69] | < 1000
COc1ccccc1-n1c(Cn2nc(I)c3c(N)ncnc32)cc2cccc(C)c2c1=O [Compound 70] | < 1000
Cc1cccc2cc(Cn3nc(-c4ccc(Cl)c(O)c4)c4c(N)ncnc43)n(C3CCCC3)c(=O)c12 [Compound 71] | < 10000
Cc1cccnc1-n1c(Cn2nc(-c3ccc(Cl)c(O)c3)c3c(N)ncnc32)cc2cccc(C)c2c1=O [Compound 72] | < 100
Cc1cccnc1-n1c(Cn2nc(-c3cccc(O)c3)c3c(N)ncnc32)cc2cccc(C)c2c1=O [Compound 73] | < 100
COc1ccccc1-n1c(Cn2nc(-c3cccc(O)c3)c3c(N)ncnc32)cc2cccc(C)c2c1=O [Compound 74] | < 100
Cc1cccc2cc(Cn3nc(I)c4c(N)ncnc43)n(-c3ccccc3C(C)C)c(=O)c12 [Compound 75] | < 100
Cc1cccc2cc(Cn3nc(I)c4c(N)ncnc43)n(-c3ccccc3Cl)c(=O)c12 [Compound 76] | < 1000
CCc1ccccc1-n1c(Cn2nc(I)c3c(N)ncnc32)cc2cccc(C)c2c1=O [Compound 77] | < 1000
Cc1ccncc1-n1c(Cn2nc(I)c3c(N)ncnc32)cc2cccc(C)c2c1=O [Compound 78] | < 1000
Cc1cccc2cc(Cn3nc(I)c4c(N)ncnc43)n(-c3ccccc3O)c(=O)c12 [Compound 79] | < 1000
COc1ccccc1-n1c(Cn2nc(C#C[C@@H](C)O)c3c(N)ncnc32)cc2cccc(C)c2c1=O [Compound 80] | < 1000
Cc1cccc2cc(Cn3nc(-c4cccc(O)c4)c4c(N)ncnc43)n(-c3ccccc3O)c(=O)c12 [Compound 81] | < 100
Cc1cccc2cc(Cn3nc(-c4cccc(O)c4)c4c(N)ncnc43)n(-c3ccccc3C(C)C)c(=O)c12 [Compound 82] | < 100
Cc1cccc2cc(Cn3nc(C#C[C@@H](C)O)c4c(N)ncnc43)n(-c3ccccc3C(C)C)c(=O)c12 [Compound 83] | < 100
COc1ccccc1-n1c(Cn2nc(-c3cc(O)cc(F)c3)c3c(N)ncnc32)cc2cccc(C)c2c1=O [Compound 84] | < 100
